From EPA's ToxRefDB 2

What was measured:
rat [1] = settings: Fertility (Segment I); Oral; Gavage/Intubation; dose end: 1 generation; group: parental; systemic / in life observation / clinical signs / alopecia + systemic / in life observation / clinical signs / respiration (rales) + …
rat [2] = settings: Chronic toxicity, wistar, Oral, Feed, dose end: 182 day, group: systemic
dog [3] = settings: Sub-acute repeat dose toxicity, beagle, Oral, Gavage/Intubation, dose end: 14 day, group: systemic
dog [4] = settings: Chronic toxicity; beagle; Oral; Gavage/Intubation; dose end: 364 day; group: systemic; systemic / organ weight / liver / absolute + systemic / pathology microscopic / testes / cellular alteration + systemic / pathology …
dog [5] = settings: Chronic toxicity; beagle; Oral; Gavage/Intubation; dose end: 364 day; group: systemic; systemic / organ weight / liver / absolute + systemic / pathology microscopic / testes / cellular alteration + systemic / pathology …; remark: listed apart in the source
rat [6] = settings: Chronic toxicity, Oral, Feed, dose end: 182 day, group: systemic
rabbit [7] = settings: Prenatal developmental toxicity study, Oral, Gavage/Intubation, dose end: 19 GD
rat [8] = settings: Sub-acute repeat dose toxicity, wistar, Oral, Gavage/Intubation, dose end: 14 day, group: systemic
rat [9] = settings: Prenatal developmental toxicity study, Oral, Gavage/Intubation, dose end: 18 GD
rat [10] = settings: Sub-acute repeat dose toxicity; wistar; Oral; Feed; dose end: 14 day; group: systemic; systemic / hematology / leukocyte (wbc) count differential / leukocyte (wbc) + systemic / hematology / lymphocyte / lymphocyte + systemic / …
rat [11] = settings: Fertility (Segment I), Oral, Gavage/Intubation, dose end: 1 generation, group: parental
dog [12] = settings: Subchronic oral toxicity in nonrodent, beagle, Feed, dose end: 90 day, group: cholinesterase, cholinesterase / cholinesterase / cholinesterase / plasma cholinesterase (che)
mouse = settings: Carcinogenicity; cd1; Oral; Feed; dose end: 97 week; group: cholinesterase; cholinesterase / cholinesterase / cholinesterase / erythrocyte cholinesterase (che) + cholinesterase / cholinesterase / cholinesterase / …
rat [13] = settings: Multigenerational reproductive toxicity study, Crl: CD(SD) BRVAF/Plus, Oral, [Not Specified], dose end: 2 generation
rat [14] = settings: Combined chronic toxicity/carcinogenicity; fischer; Oral; Feed; dose end: 105 week; group: cholinesterase; cholinesterase / cholinesterase / cholinesterase / erythrocyte cholinesterase (che) + cholinesterase / cholinesterase / cholinesterase / …
rat [15] = settings: Prenatal developmental toxicity study, Oral, Gavage/Intubation, dose end: 15 GD, group: maternal
dog [16] = settings: Subchronic oral toxicity in nonrodent, beagle, Feed, dose end: 26 week
rat [17] = settings: Sub-acute repeat dose toxicity; Oral; Gavage/Intubation; dose end: 5 day; group: systemic; systemic / in life observation / clinical signs / arrhythmia + systemic / in life observation / clinical signs / dehydration + systemic / in…
dog [18] = settings: Sub-acute repeat dose toxicity; beagle; Oral; Gavage/Intubation; dose end: 4 day; group: systemic; systemic / in life observation / clinical signs / erythema + systemic / in life observation / clinical signs / reduced activity + systemic…
primate [19] = settings: Sub-acute repeat dose toxicity, marmoset, Oral, Gavage/Intubation, dose end: 4 day, group: systemic
dog [20] = settings: Sub-acute repeat dose toxicity; beagle; Oral; Gavage/Intubation; dose end: 4 day; group: systemic; systemic / clinical chemistry / [other] / [other] + systemic / clinical chemistry / apolipoprotein a1 / apolipoprotein a1 + systemic / …
primate [21] = settings: Subchronic oral toxicity in nonrodent, Gavage/Intubation, dose end: 91 day, group: systemic, systemic / in life observation / clinical signs / emesis
rat [22] = settings: Subchronic oral toxicity in rodents, wistar, Gavage/Intubation, dose end: 91 day, group: systemic
rabbit [23] = settings: Sub-acute repeat dose toxicity, Oral, Gavage/Intubation, dose end: 5 day, group: systemic
[24] = systemic / pathology gross / full gross necropsy / rhabdomyosarcoma + systemic / clinical chemistry / albumin-globulin ratio / albumin-…
[25] = systemic / pathology gross / uterus / cyst + systemic / pathology microscopic / uterus / cyst + systemic / organ weight / testes / absolute…
[26] = systemic / clinical chemistry / [other] / [other] + systemic / clinical chemistry / alanine aminotransferase (alt/sgpt) / alanine …
[27] = systemic / clinical chemistry / albumin-globulin ratio / albumin-globulin ratio + systemic / clinical chemistry / glucose / glucose + …
[28] = group: developmental, systemic / in life observation / body weight / fetal weight
[29] = group: maternal, systemic / in life observation / body weight / body weight
[30] = systemic / clinical chemistry / cytochrome p450, nos / cytochrome p450, nos
[31] = systemic / clinical chemistry / cytochrome p450, nos / cytochrome p450, nos + systemic / clinical chemistry / urea nitrogen / urea nitrogen…
[32] = group: developmental, developmental / developmental malformation / bone / [other] + developmental / developmental malformation / bone / delayed ossification + …
[33] = group: maternal, systemic / in life observation / body weight / body weight + systemic / in life observation / body weight / body weight gain + systemic / in…
[34] = systemic / in life observation / body weight / body weight gain + systemic / in life observation / clinical signs / abnormal feces + …
[35] = systemic / pathology microscopic / testes / dilatation
[36] = group: offspring, systemic / in life observation / body weight / offspring (pup) weight + systemic / in life observation / body weight / offspring (pup) …
[37] = group: parental, systemic / in life observation / body weight / body weight + systemic / in life observation / body weight / body weight gain + systemic / in…
[38] = group: reproductive, reproductive / reproductive performance / implantations / implantations
[39] = systemic / in life observation / body weight / body weight + systemic / in life observation / food consumption / food consumption
[40] = group: cholinesterase, cholinesterase / cholinesterase / cholinesterase / plasma cholinesterase (che) + cholinesterase / cholinesterase / cholinesterase / …
[41] = group: systemic, systemic / hematology / erythrocyte (rbc) count differential / erythrocyte (rbc) + systemic / hematology / hemoglobin (hgb) / hemoglobin (…
[42] = systemic / in life observation / clinical signs / defecation (diarrhea) + systemic / pathology microscopic / salivary glands / degeneration…
[43] = systemic / pathology microscopic / salivary glands / degeneration + systemic / hematology / fibrinogen / fibrinogen + systemic / pathology …
[44] = systemic / in life observation / body weight / body weight + systemic / in life observation / clinical signs / abnormal feces + systemic / …
[45] = systemic / pathology microscopic / intestine large / hyperplasia + systemic / pathology microscopic / stomach / hyperplasia
[46] = systemic / in life observation / body weight / body weight + systemic / in life observation / clinical signs / abnormal respiratory sounds…
[47] = systemic / in life observation / clinical signs / nasal discharge + systemic / in life observation / food consumption / food consumption

With CCc1cc(C2=C(C(=O)O)N(c3ccccc3C(F)(F)F)S(=O)(=O)c3ccccc32)cc2c1OCO2 [Fandosentan] the LEL (rat [1]) was 25 mg/kg/day, the LOAEL (rat [1]) was greater than 250 mg/kg/day and the NEL (rat [1]) was less than 25 mg/kg/day. The NOAEL (rat [1]) was no less than 250 mg/kg/day, the LOAEL (rat [2]; [24]) was greater than 300 mg/kg/day and the NOAEL (rat [2]; [24]) was no less than 300 mg/kg/day. For the same compound, the LEL (rat [2]; [25]) was 75 mg/kg/day, the NEL (rat [2]; [25]) was less than 75 mg/kg/day and the LOAEL (dog [3]; [26]) was greater than 200 mg/kg/day. It also gave an NOAEL (dog [3]; [26]) of no less than 200 mg/kg/day, an LEL (dog [3]; systemic / in life observation / clinical signs / defecation (diarrhea) + systemic / clinical chemistry / [other] / [other] + systemic / …) of 30 mg/kg/day and an LEL (dog [4]) of 10 mg/kg/day. For the same compound, the LOAEL (dog [4]) was greater than 100 mg/kg/day, the NEL (dog [4]) was less than 10 mg/kg/day and the NOAEL (dog [4]) was no less than 100 mg/kg/day. It also gave an LEL (dog [5]) of 10 mg/kg/day, an LOAEL (dog [5]) greater than 100 mg/kg/day and an NEL (dog [5]) of less than 10 mg/kg/day. It also gave an NOAEL (dog [5]) of no less than 100 mg/kg/day, an LOAEL (rat [6]; [27]) greater than 300 mg/kg/day and an NOAEL (rat [6]; [27]) of no less than 300 mg/kg/day. For the same compound, the LEL (rat [6]; [25]) was 75 mg/kg/day, the NEL (rat [6]; [25]) was less than 75 mg/kg/day and the LEL (rabbit [7]; [28]) was 50 mg/kg/day. For the same compound, the LOAEL (rabbit [7]; [28]) was greater than 50 mg/kg/day, the NOAEL (rabbit [7]; [28]) was no less than 50 mg/kg/day and the LEL (rabbit [7]; [29]) was 50 mg/kg/day. It also gave an LOAEL (rabbit [7]; [29]) greater than 50 mg/kg/day, an NEL (rabbit [7]; [29]) of 25 mg/kg/day and an NOAEL (rabbit [7]; [29]) of no less than 50 mg/kg/day. For the same compound, the LEL (rat [8]; [30]) was 100 mg/kg/day, the NEL (rat [8]; [30]) was less than 100 mg/kg/day and the LOAEL (rat [8]; [31]) was greater than 500 mg/kg/day. It also gave an NOAEL (rat [8]; [31]) of no less than 500 mg/kg/day, an LOAEL (rat [9]; [32]) greater than 250 mg/kg/day and an NOAEL (rat [9]; [32]) of no less than 250 mg/kg/day. The LEL (rat [9]; group: developmental, developmental / developmental malformation / bone / [other] + developmental / developmental malformation / face / [other] + developmental / …) was 100 mg/kg/day, the LEL (rat [9]; [33]) was 250 mg/kg/day and the LOAEL (rat [9]; [33]) was greater than 250 mg/kg/day. The NOAEL (rat [9]; [33]) was no less than 250 mg/kg/day, the LEL (rat [10]) was 100 mg/kg/day and the LOAEL (rat [10]) was greater than 750 mg/kg/day. It also gave an NEL (rat [10]) of less than 100 mg/kg/day, an NOAEL (rat [10]) of no less than 750 mg/kg/day and an LOAEL (rat [11]; [34]) greater than 250 mg/kg/day. For the same compound, the NOAEL (rat [11]; [34]) was no less than 250 mg/kg/day, the LEL (rat [11]; [35]) was 25 mg/kg/day and the NEL (rat [11]; [35]) was less than 25 mg/kg/day.
CCCSP(=O)(OCC)Oc1ccc(Br)cc1Cl (stereo unspecified) [Profenofos] was tested, and the LEL (dog [12]) was 0.05 mg/kg/day, the LOAEL (dog [12]) was 0.05 mg/kg/day and the NEL (dog [12]) was less than 0.05 mg/kg/day. It also gave an NOAEL (dog [12]) of less than 0.05 mg/kg/day, an LEL (mouse) of 4.54 mg/kg/day and an LOAEL (mouse) of 4.54 mg/kg/day. The NEL (mouse) was 0.14 mg/kg/day, the NOAEL (mouse) was 0.14 mg/kg/day and the LEL (rat [13]; [36]) was 29 mg/kg/day. It also gave an LOAEL (rat [13]; [36]) of 29 mg/kg/day, an NEL (rat [13]; [36]) of 7.3 mg/kg/day and an NOAEL (rat [13]; [36]) of 7.3 mg/kg/day. It also gave an LEL (rat [13]; [37]) of 29 mg/kg/day, an LOAEL (rat [13]; [37]) of 29 mg/kg/day and an NEL (rat [13]; [37]) of 7.3 mg/kg/day. It also gave an NOAEL (rat [13]; [37]) of 7.3 mg/kg/day, an LEL (rat [13]; [38]) of 29 mg/kg/day and an LOAEL (rat [13]; [38]) greater than 29 mg/kg/day. For the same compound, the NEL (rat [13]; [38]) was 7.3 mg/kg/day, the NOAEL (rat [13]; [38]) was no less than 29 mg/kg/day and the LEL (rat [14]) was 1 mg/kg/day. For the same compound, the LOAEL (rat [14]) was 1 mg/kg/day, the NEL (rat [14]) was 0.03 mg/kg/day and the NOAEL (rat [14]) was 0.03 mg/kg/day. For the same compound, the LOAEL (rat [15]; [39]) was 60 mg/kg/day, the NEL (rat [15]; [39]) was 10 mg/kg/day and the NOAEL (rat [15]; [39]) was 30 mg/kg/day. The LEL (rat [15]; systemic / in life observation / food consumption / food consumption) was 30 mg/kg/day, the NOAEL (dog [16]; group: cholinesterase, cholinesterase / cholinesterase / cholinesterase / plasma cholinesterase (che) + cholinesterase / cholinesterase / cholinesterase / brain …) was 0.005 mg/kg/day and the LEL (dog [16]; [40]) was 0.005 mg/kg/day. It also gave an LOAEL (dog [16]; [40]) of 0.05 mg/kg/day, an NEL (dog [16]; [40]) of less than 0.005 mg/kg/day and an LEL (dog [16]; [41]) of 12.5 mg/kg/day. It also gave an LOAEL (dog [16]; [41]) greater than 12.5 mg/kg/day, an NEL (dog [16]; [41]) of 2.5 mg/kg/day and an NOAEL (dog [16]; [41]) of no less than 12.5 mg/kg/day.
In the case of Nc1cc2c3c(c1)C(c1ccccc1)=N[C@@H](NC(=O)c1cccnc1)C(=O)N3CC2 [CI-1044], the LOAEL (rat [17]) is reported as greater than 50 mg/kg/day, the NEL (rat [17]) is reported as 10 mg/kg/day and the NOAEL (rat [17]) is reported as no less than 50 mg/kg/day. It also gave an LEL (dog [18]) of 50 mg/kg/day, an LOAEL (dog [18]) greater than 50 mg/kg/day and an NEL (dog [18]) of less than 50 mg/kg/day. The NOAEL (dog [18]) was no less than 50 mg/kg/day, the LOAEL (primate [19]; [42]) was greater than 320 mg/kg/day and the NOAEL (primate [19]; [42]) was no less than 320 mg/kg/day. For the same compound, the LEL (primate [19]; [43]) was 80 mg/kg/day, the NEL (primate [19]; [43]) was less than 80 mg/kg/day and the LEL (dog [20]) was 20 mg/kg/day. It also gave an LOAEL (dog [20]) greater than 20 mg/kg/day, an NEL (dog [20]) of less than 20 mg/kg/day and an NOAEL (dog [20]) of no less than 20 mg/kg/day. For the same compound, the LEL (primate [21]) was 1 mg/kg/day, the LOAEL (primate [21]) was greater than 15 mg/kg/day and the NEL (primate [21]) was less than 1 mg/kg/day. The NOAEL (primate [21]) was no less than 15 mg/kg/day, the LOAEL (rat [22]; [44]) was greater than 25 mg/kg/day and the NOAEL (rat [22]; [44]) was no less than 25 mg/kg/day. The LEL (rat [22]; [45]) was 3 mg/kg/day, the NEL (rat [22]; [45]) was less than 3 mg/kg/day and the LOAEL (rabbit [23]; [46]) was greater than 1000 mg/kg/day. The NOAEL (rabbit [23]; [46]) was no less than 1000 mg/kg/day, the LEL (rabbit [23]; [47]) was 50 mg/kg/day and the NEL (rabbit [23]; [47]) was less than 50 mg/kg/day.
